According to patent US20130303551A1, “PYRIMIDINONE DERIVATIVES AS FATTY ACID SYNTHASE INHIBITORS” (priority 2011, published 2013):

Target: FAS (Homo sapiens, UniProt P49327)
Assay: FAS assay (Assay #1: residual NADPH detection, or Assay #2: CoA detection with thio-reactive coumarin dye)
Type: biochemical
Conditions: average IC50, each compound tested two or more times; FAS activity measured through one of the two assays
Experimental: FAS Activity was Measured Through One of the Two Following Assays.
Inhibition of FAS activity can be measured based on the detection of residual NADPH substrate after the FAS assay is quenched. This assay is run as a 10 μL endpoint assay in 384-well format, where the reaction contains 20 μM malonyl-CoA, 2 μM acetyl-CoA, 30 μM NADPH and 40 nM FAS in 50 mM sodium phosphate, pH 7.0. The assay is run by sequentially dispensing 5 ul of a malonyl-CoA solution, then enzyme solution (containing the acetyl-CoA, and NADPH) into a black, low volume assay plate (Greiner 784076) pre-dispensed with […] compound solutions in DMSO. The reaction is incubated at ambient temperature for 60 minutes, then quenched with 5 μL of a developing solution composed of 90 μM resazurin, 0.3 IU/ml diaphorase in 50 mM sodium phosphate, pH 7.0. The developed reaction is read on a Molecular Devices Analyst or Acquest (or equivalent) plate reader using a 530 nm excitation wavelength filter, a 580 nm emission filter, and 561 nm dichroic filter. The test compounds are prepared in neat DMSO at a concentration of 10 mM. For inhibition curves, compounds are diluted using a three fold serial dilution and tested at 11 concentrations (e.g. 25 μM-0.42 nM). Curves are analysed using ActivityBase and XLfit, and results are expressed as pIC50 values.
Inhibition of FAS can also be quantified based on the detection of the CoA products with a thio-reactive coumarin dye. This assay is run as a 10 μL endpoint assay in 384-well format, where the reaction contains 20 μM malonyl-CoA, 20 μM acetyl-CoA, 40 μM NADPH and 2 nM FAS in 50 mM sodium phosphate, pH 7.0, and 0.04% Tween-20. The assay is run by adding 5 μL enzyme solution to a black, low volume assay plate (Greiner 784076) pre-dispensed with 100 nl compound solutions in DMSO. After 30 minutes, 5 μL substrate is added, and the reaction incubated at ambient temperature for an additional 60 minutes. The reaction is then quenched with 10 μL of 6M guanidine-HCl containing 50 μM CPM (7-diethylamino-3-(4′-maleimidylphenyl)-4-methylcoumarin (CPM; thio-reactive dye), and incubated for 30 minutes. The plate is read on an Envision (PerkinElmer) or equivalent plate reader using a 380 nm excitation wavelength filter, and a 486 nm emission filter. Data fitting and compound preparations are done as described above.

Sequence of FAS (P49327 whole entry): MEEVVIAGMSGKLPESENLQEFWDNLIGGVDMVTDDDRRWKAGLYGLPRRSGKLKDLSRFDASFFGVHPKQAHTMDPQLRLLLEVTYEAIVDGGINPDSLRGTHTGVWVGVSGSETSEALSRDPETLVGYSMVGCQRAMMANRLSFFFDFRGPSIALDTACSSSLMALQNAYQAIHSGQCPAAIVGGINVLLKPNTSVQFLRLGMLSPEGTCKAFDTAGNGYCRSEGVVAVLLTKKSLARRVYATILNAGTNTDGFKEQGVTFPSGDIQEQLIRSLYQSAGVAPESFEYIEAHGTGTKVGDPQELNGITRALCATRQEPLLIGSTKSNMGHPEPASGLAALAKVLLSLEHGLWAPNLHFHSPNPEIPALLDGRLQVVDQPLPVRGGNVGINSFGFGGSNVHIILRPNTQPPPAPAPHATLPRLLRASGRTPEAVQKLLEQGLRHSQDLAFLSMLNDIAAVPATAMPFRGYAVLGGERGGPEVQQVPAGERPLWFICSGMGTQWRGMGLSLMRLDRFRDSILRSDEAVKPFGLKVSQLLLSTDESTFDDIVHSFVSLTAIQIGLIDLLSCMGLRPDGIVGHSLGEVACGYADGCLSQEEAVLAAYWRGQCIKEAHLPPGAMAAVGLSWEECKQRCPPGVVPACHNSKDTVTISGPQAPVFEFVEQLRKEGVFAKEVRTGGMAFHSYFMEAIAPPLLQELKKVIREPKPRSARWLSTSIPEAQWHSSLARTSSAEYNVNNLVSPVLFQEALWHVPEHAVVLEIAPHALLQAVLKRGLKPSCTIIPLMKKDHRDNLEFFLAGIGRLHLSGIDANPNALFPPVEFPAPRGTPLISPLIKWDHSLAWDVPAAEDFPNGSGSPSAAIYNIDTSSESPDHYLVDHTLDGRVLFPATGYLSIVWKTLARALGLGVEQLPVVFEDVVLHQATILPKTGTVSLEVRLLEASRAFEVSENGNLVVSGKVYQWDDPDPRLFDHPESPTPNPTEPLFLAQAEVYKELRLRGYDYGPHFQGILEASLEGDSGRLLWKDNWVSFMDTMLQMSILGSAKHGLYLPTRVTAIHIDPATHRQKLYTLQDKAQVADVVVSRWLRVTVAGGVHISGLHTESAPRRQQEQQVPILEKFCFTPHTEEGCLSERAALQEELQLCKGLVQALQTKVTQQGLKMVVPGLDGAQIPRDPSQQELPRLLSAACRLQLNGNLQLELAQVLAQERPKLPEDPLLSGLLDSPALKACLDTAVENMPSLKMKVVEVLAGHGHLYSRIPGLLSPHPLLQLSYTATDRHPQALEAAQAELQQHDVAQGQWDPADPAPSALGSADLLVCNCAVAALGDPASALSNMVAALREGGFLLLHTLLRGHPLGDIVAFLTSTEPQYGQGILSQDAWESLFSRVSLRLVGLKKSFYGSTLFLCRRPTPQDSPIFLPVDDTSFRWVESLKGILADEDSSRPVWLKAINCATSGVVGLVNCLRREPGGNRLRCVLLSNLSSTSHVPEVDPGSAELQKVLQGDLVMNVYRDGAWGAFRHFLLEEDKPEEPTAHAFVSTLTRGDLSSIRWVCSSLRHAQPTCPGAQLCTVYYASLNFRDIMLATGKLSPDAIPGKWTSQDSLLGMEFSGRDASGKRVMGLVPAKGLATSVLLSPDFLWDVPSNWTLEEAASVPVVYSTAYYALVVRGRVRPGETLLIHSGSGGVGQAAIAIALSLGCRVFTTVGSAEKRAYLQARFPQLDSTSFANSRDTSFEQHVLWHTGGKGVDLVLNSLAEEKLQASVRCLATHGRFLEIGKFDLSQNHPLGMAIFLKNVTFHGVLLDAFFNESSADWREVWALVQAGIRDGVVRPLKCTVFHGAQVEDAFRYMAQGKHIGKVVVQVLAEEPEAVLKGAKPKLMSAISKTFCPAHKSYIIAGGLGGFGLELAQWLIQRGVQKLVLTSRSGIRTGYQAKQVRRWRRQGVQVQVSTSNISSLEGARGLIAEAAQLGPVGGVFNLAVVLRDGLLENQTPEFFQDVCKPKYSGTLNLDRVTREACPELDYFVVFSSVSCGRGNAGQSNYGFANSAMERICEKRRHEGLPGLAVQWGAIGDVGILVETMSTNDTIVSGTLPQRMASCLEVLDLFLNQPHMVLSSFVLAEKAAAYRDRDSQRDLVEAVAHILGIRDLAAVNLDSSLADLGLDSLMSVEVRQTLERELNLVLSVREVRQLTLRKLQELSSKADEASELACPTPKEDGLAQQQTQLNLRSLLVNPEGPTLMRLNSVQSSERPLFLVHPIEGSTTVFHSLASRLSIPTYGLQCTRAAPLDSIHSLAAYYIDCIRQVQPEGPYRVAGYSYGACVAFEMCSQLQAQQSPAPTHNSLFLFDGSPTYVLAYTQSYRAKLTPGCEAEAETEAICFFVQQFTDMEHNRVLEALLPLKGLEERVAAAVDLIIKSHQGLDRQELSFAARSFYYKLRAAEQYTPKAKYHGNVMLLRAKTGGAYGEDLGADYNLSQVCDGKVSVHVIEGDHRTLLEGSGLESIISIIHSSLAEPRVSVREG

| IC50 | Structure (SMILES) |
| --- | --- |
| 7.9 nM | Cn1ncc2c(=O)n(C[C@@H]3CCN(C(=O)C4CC4)C3)c(-c3ccc(-c4ccc5[nH]ccc5c4)cc3)nc21 [Example 1, 5-{[(3R)-1-(cyclopropylcarbonyl)-3-pyrrolidinyl]methyl}-6-[4-(1H-indol-5-yl)phenyl]-1-methyl-1,5-dihydro-4H-pyrazolo[3,4-d]pyrimidin-4-one] |
| 25.1 nM | Cc1nc2c(=O)n(C[C@@H]3CCN(C(=O)C4CC4)C3)c(-c3ccc(-c4ccc5[nH]ncc5c4)cc3)nc2o1 [Example 11, 6-{[(3R)-1-(cyclopropylcarbonyl)-3-pyrrolidinyl]methyl}-5-[4-(1H-indazol-5-yl)phenyl]-2-methyl[1,3]oxazolo[5,4-d]pyrimidin-7(6H)-one] |
| 200 nM | COc1ccc(-c2ccc(-c3nc4ccccc4c(=O)n3C[C@@H]3CCN(C(=O)C4CC4)C3)cc2)c(Cl)c1 [Example 24, 2-[2-chloro-4(methoxy)-4-bipheny]-3-{[(3R)-1-(cyclopropylcarbonyl)-3-pyrrolidinyl]methyl}-4(3H)-quinazolinone] |
| 3.16 nM | Cc1cc(=O)n(C[C@@H]2CCN(C(=O)C3CC3)C2)c(-c2ccc(-c3ccc4[nH]ccc4c3)cc2)n1 [Example 26] |
| 10 nM | Cc1cc(=O)n(-c2ccc(-c3ccc4cc[nH]c4c3)cc2)c(C[C@@H]2CCN(C(=O)C3CC3)C2)n1 [Example 47, 2-{[(3S)-1-(cyclopropylcarbonyl)-3-pyrrolidinyl]methyl}-1-[4-(1H-indol-6-yl)phenyl]-6-methyl-4(3H)-pyrimidinone] |
| 3160 nM | Cc1cc(=O)nc(C[C@@H]2CCN(C(=O)C3CC3)C2)n1-c1ccc(-c2ccc3occc3c2)cc1 [Example 49, 1-[4-(1-benzofuran-5-yl)phenyl]-2-{[(3S)-1-(cyclopropylcarbonyl)-3-pyrrolidinyl]methyl}-6-methyl-4(1H)-pyrimidinone] |
